Reference: patent publication US7265154B2, “Valproic acid and derivatives thereof as histone deacetylase inhibitors” (Georg-Speyter-Haus Chemotherapeutisches Forschungsinstitut, priority 2000, dated 2007)
Where “and” joins values, the source holds several entries; their conditions need not be identical. Identical values can stand only once. Square brackets hold non-standard residues; d marks the D form. Peptide text beside a SMILES is read from it. Aoe = N[C@@H](CCCCCC(=O)[C@@H]1CO1)C(=O)O

Key:
F9 teratocarcinoma cells [1] = assay: 3H-thymidine incorporation in F9 cells; format: cell-based; conditions: 1 mM VPA, 36 h, then 12 h 3H-thymidine
From the text: (§1) Cell differentiation is associated with cell cycle arrest, morphological alterations and the appearance of expression of markers of the differentiated phenotype. Morphological alterations where determined by microscopic evaluation of F9 and HT-29 cells. One parameter of differentiation, the cell cycle arrest, was shown in F9 teratocacrcinoma, estrogen independent MT-450 breast cancer and HT-29 colonic carcinoma cells by means of the reduced incorporation of ^3H-thymidine into cultured cells. […] 37 kBq of ^3H-thymidine were added for additional 12 h of culture. MT-450 cells were cultured for 72 h prior to a 1 h ^3H-thymidine labelling period. Incorporation of ^3H-thymidine into DNA was determined by automatic cell harvesting and liquid scintillation counting. […] The dose-response for the reduction of thymidine incorporation into HT-29 cells (FIG. 5A) was determined by the same experimental procedure. In addition, the induction of a cell differentiation marker was shown in F9 teratocarcinoma cells (FIG. 5B).

[2] = tested on: MT-450 breast cancer cells; assay: 3H-thymidine incorporation in MT-450 cells; format: cell-based; conditions: 1 mM VPA, 72 h, then 1 h 3H-thymidine
From the text: as §1

[3] = tested on: HT-29 colonic carcinoma cells; assay: 3H-thymidine incorporation in HT-29 cells; format: cell-based; conditions: 1 mM VPA, 36 h, then 12 h 3H-thymidine
From the text: as §1

F9 teratocarcinoma cells [4] = assay: Nuclear AP-2 protein as differentiation marker, Western blot; format: cell-based; conditions: 48 h; VPA 1 mM, sodium butyrate 1 mM, trichostatin A 30 nM
From the text: Nuclear extracts were separated on a 9% SDS polyacrylamide gel. AP-2 protein was detected by Western blot analysis using a rabbit polyclonal antibody (Santa Cruz, Cat.-No.: SC-184) at a dilution of 1/1000 in Tris buffered saline containing 3% non-fat dry milk and 0.05% Tween 20.

[5] = tested on: histones H3 and H4 in F9 cells; assay: Accumulation of hyperacetylated histones H3 and H4, Western blot; format: cell-based; conditions: whole cell extracts, VPA in the range of therapeutic serum levels, 16 h
From the text: Histone deacetylase inhibitors induce the accumulation of N-terminally hyperacetylated histones H3 and H4. These acetylated histones can be detected by Western blot analysis of whole cell extracts or of histone preparations from histone deacetylase inhibitor-treated cells using antibodies specific for the acetylated N-terminal lysine residues of histones H3 and H4.
These acetylated histones can be detected by Western blot analysis in cell extracts of appropriately treated cells.
(A) For the time course analysis F9 cells were seeded into 6-well culture dishes 30 h before the intended time point of analysis. […] DNA of collected samples was sheared by sonication and samples were separated on a 15% denaturing polyacrylamide gel. Acetylated histones H3 and histone H4 were detected by Western blot analysis using commercially available antibodies (Upstate Biotechnology) specific for the acetylated forms of histones (Ac-H3, Cat-Nr.: 06-599; Ac-H4, Cat-Nr.: 06-598). Equal loading of the lanes was confirmed by staining a part of the polyacrylamide gel by Coomassie blue.
Whole cell extracts were prepared 16 h after treatment as described above. Analysis for acetylated histones H3 and H4 was performed as described in (A).

[6] = tested on: breast, ovarian, squamous cell and renal carcinoma cells; assay: Cell viability assay (MTT); format: cell-based; conditions: 1 or 3 mM, 40 h or 70 h
Protocol: Human MDA-MB468, MDA-MB453 and SKBR3 breast carcinoma cells, A431 squamous cell carcinoma cells, and SKOV3 ovarian carcinoma cells were maintained in Dulbecco's modified Eagle's medium (DMEM, BioWhittaker, Verviers, Belgium) supplemented with 10% heat inactivated fetal bovine serum (FBS), 2 mM L-glutamine, 100 units/ml penicillin, and 100 μg/ml streptomycin. Human MCF7 breast carcinoma cells were grown in RPMI medium supplemented as described above.
Renal cell carcinoma (Renca) cells stably transfected with plasmid pZeoSV2/lacZ encoding E. coli β-galactosidase (Renca-lacZ cells) (Maurer-Gebhard et al., Cancer Res. 58: 2661-2666, 1998) were grown in RPMI-1640 medium supplemented with 8% FBS, 2 mM L-glutamine, 100 U/ml penicillin, 100 μg/ml streptomycin, 0.25 mg/ml Zeocin. […]
Tumor cells were seeded in 96 well plates at a density of 1×10^4 cells/well in normal growth medium. […] After solubilization of the formazan product, the absorption at 590 nm was determined in a microplate reader (Dynatech, Denkendorf, Germany) and the relative amount of viable cells in comparison to cells grown without the addition of valproic acid was calculated.

[7] = tested on: human cancer cell cultures; assay: Reduction of total cellular biomass (Sulforhodamine B); format: cell-based; conditions: 48 hours VPA
Protocol: Background OD of complete medium with 5% FBS fixed and stained as described above was also determined in 12 separate wells.

[8] = tested on: SW-1116 colon cancer cells; assay: Morphological evaluation for cell death, SW-1116; format: cell-based, human; conditions: 1 mM VPA
Protocol: (§2) The reduction in biomass could indicate cell loss due to cell death and/or differentiation associated cell cycle arrest. Quantitative parameters, e.g. the loss of biomass, was determined in 30 human cancer cell lines (FIG. 8 e) and twelve examples of dose-response curves are shown, e.g. BT-549 breast cancer cells (1), estrogen dependent ZR-75 breast cancer cells (2), DMS-114 small cell lung cancer cells (3), NCl—H226 non-small cell lung cancer cells (4), SK-MEL-28 skin cancer cells (5), OVCAR-3 ovarian cancer cells (6), HUP-T3 pancreatic cancer cells (7), DU-145 prostate cancer cells (8), DETROIT-562 head and neck cancer cells, LS-174 colon cancer cells (10), A-172 brain cancer cells (11) and HL-60 leukemia cells (12) (FIGS. 8a-d). All cells were evaluated for morphological signs of cell death and/or differentiation.

PC-3 cells = assay: Morphological evaluation for differentiation, PC-3; format: cell-based, human; conditions: VPA treatment
Protocol: as §2

[9] = tested on: DU-145 prostate cancer cells; assay: Morphological evaluation for differentiation, DU-145; format: cell-based, human; conditions: VPA treatment
Protocol: as §2

U87MG cells = assay: Morphological evaluation for differentiation, U87MG; format: cell-based, human; conditions: VPA treatment
Protocol: as §2

[10] = tested on: Gal4 fusion proteins of TR, PPARδ, RAR, N—CoR and AML/ETO in Hela cells; assay: Gal4 fusion protein transcriptional repression assay, UAS TK luciferase reporter; format: cell-based; conditions: 24 h, VPA 1 mM, Trapoxin 10 nM, TSA 100 nM
From the text: The transcriptional assay for repressor activity exploits activation and derepression of a Gal4-dependent reporter gene. This assay can be performed either by transient transfection of mammalian cell lines (e.g. HeLa, 293T, CV-1) or with specifically constructed permanent cell lines. Transcription factors such as thyroid hormone receptor, PPARδ, retinoic acid receptor, N—COR and AML/ETO repress transcription when they bind to a promoter containing UAS elements as fusion proteins with the heterologous DNA-binding domain of the yeast Gal4 protein. […] HDAC inhibitors induce relief of this repression which can be detected as an increase in reporter gene activity (e.g. by luciferase assay).
The transcription factors thyroid hormone receptor (TR), peroxisome proliferator activated receptor □ (PPARδ), retinoic acid receptor (RAR), the corepressor N—CoR and the AML/ETO fusion protein repress transcription when they bind to a promoter containing UAS sites (Gal4 response element) as fusion proteins with the heterologous DNA binding domain of the yeast Gal4 protein. […] Transcriptional repression is measured as luciferase activity relative to the baseline of cells transfected with an expression plasmid for the Gal4 DNA binding domain alone (FIG. 2).

[11] = biological target: T1, PPARδ ligand binding domain (glucocorticoid receptor hybrid) (UniProt P04150+P35396); assay: PPARδ-glucocorticoid receptor hybrid reporter gene assay (alkaline phosphatase) in CHO cells; format: cell-based; conditions: 40 h, cPGI 5 μM with VPA 1 or 2 mM or TSA 300 nM
T1 construct: expressed in transfected cells; host or cells: CHO subclone with MMTV-LTR alkaline phosphatase reporter
T1 sequence (P04150+P35396 with tags, fused parts or gaps): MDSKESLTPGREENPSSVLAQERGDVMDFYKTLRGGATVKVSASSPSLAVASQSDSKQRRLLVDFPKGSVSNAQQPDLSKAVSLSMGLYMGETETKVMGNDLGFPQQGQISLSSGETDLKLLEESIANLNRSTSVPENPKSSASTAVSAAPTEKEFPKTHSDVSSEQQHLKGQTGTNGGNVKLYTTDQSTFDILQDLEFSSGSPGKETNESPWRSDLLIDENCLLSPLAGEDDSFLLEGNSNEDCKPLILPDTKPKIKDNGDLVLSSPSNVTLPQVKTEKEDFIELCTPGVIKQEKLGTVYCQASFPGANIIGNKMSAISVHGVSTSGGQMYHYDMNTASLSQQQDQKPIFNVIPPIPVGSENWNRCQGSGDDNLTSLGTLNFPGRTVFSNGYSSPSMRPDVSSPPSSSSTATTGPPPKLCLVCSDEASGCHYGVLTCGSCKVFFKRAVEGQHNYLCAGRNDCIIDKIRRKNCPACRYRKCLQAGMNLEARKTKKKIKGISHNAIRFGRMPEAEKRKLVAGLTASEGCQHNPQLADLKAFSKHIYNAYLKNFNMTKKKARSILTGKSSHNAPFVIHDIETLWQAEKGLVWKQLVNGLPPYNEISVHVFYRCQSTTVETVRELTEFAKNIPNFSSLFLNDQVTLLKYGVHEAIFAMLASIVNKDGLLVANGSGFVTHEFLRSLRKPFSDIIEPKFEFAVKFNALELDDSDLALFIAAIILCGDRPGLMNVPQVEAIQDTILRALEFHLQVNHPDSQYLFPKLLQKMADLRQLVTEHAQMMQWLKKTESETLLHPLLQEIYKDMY
From the text: A reporter gene cell line for activation of the PPARδ ligand binding domain was constructed in CHO cells. […] Activation of the PPARδ ligand binding domain in these cells induces expression of the alkaline phosphatase reporter gene which is detectable by an enzymatic assay from the cell culture supernatant. […] Reporter gene activity was monitored by an enzymatic assay (alkaline phosphatase).

Compound: CCCC(CCC)C(=O)O [VPA, 2-n-propylpentanoic acid]
- Reduction of the rate of thymidine incorporation (F9 teratocarcinoma cells [1]): 48±5% and 48%
- Reduction of the rate of thymidine incorporation [2]: 63±8%
- Reduction of the rate of thymidine incorporation [3]: 52±8%
- Appearance of nuclear AP-2 protein (F9 teratocarcinoma cells [4]): induce nuclear AP-2 protein
- Accumulation of hyperacetylated histones H3 and H4 [5]: induce hyperactylation of histones H3 and H4
- Viability of tumor cells (MTT) [6]: reduces the viability
- Total cellular biomass [7]: reduces the total cellular biomass
- Cell death by morphological signs [8]: most cells were dying
- Change of cell morphology (PC-3 cells): change their normal round morphology to a long fibroblast-like shape
- Change of cell morphology [9]: change their normal round morphology to a long fibroblast-like shape
- Change of cell morphology (U87MG cells): increase in length and develop spider-like filamentous extensions

Compound: O=C1N[C@@H](Cc2ccccc2)C(=O)N2CCC[C@@H]2C(=O)N[C@@H](CCCCCC(=O)[C@@H]2CO2)C(=O)N[C@H]1Cc1ccccc1 [Trapoxin, trapoxin] (cyclo(FF[dP][Aoe]))
- Relief of transcriptional repression (increase in reporter gene activity) [10]: relief of repression

Compound: CCCC(=O)[O-].[Na+] [sodium butyrate]
- Appearance of nuclear AP-2 protein (F9 teratocarcinoma cells [4]): weak
- Accumulation of hyperacetylated histones H3 and H4 [5]: induce the accumulation of hyperacetylated histones H3 and H4

Compound: CC(/C=C/C(=O)NO)=C\[C@@H](C)C(=O)c1ccc(N(C)C)cc1 [TSA, trichostatin A]
- Appearance of nuclear AP-2 protein (F9 teratocarcinoma cells [4]): induce nuclear AP-2 protein
- Accumulation of hyperacetylated histones H3 and H4 [5]: induce the accumulation of hyperacetylated histones H3 and H4
- Relief of transcriptional repression (increase in reporter gene activity) [10]: relief of repression
- Activation of the reporter gene together with the PPARδ ligand cPGI [11]: synergistic activation
